Columns and labels:
[1] = tested on: C4-2B prostate cancer cells; assay: Cellular uptake and metabolism study in C4-2B with or without serum (HPLC); settings: 50 μM, 4 h; for mean cellular uptake: mean of ICL-CCIC-0019 and CK146; for detection in cell lysates by HPLC (in words): both FCS groups
Experimental: Cell lysate sample preparation: C4-2B prostate cancer cells were seeded into cell culture dishes (150 × 25 mm) at a density of 7 × 10^6 per dish. The cells were allowed to settle and grow for another 48 h. The cells were treated with ICL-CCIC-0019, CK146, CK147 and CK148 (50 μM of 7 mL RPMI medium with or without 10% FCS) for 4 h in the incubator. After 4-h incubation, the aliquots of medium were collected (see the medium sample preparation section). Cells were scraped, washed with ice-cold PBS three times and collected by centrifugation (4 °C, 4000× g). The cell pellets were resuspended in 500 μL of chilled acetonitrile:PBS (50:50, v/v) for cell disruption and homogenization. The cell disruption was performed by a Precellys® 24 homogenizer (Bertin Technologies, Montigny-le-Bretonneux, France) at 4 °C. After acetonitrile evaporation at room temperature, 50 μL of cell lysis was taken for protein analysis. Another 100 μL of the supernatant obtained after centrifuge (4 °C, 15,000× g) was resuspended in 100 μL formic acid:water (0.2%, v/v). Next, 100 μL of the filtered solution was analyzed by HPLC system described in Supplementary HPLC method D. Three injections were performed for each sample. Intracellular drug was normalized to cellular protein of each plate using BCA assay. Medium sample preparation for HPLC analysis: 250-μL aliquots of medium (with or without 10% FCS) were transferred into 1.5-mL tube containing 250 μL acetonitrile. After a brief vortex, the tube was placed at 4 °C for 30 min for protein precipitation. One hundred microliters of the resulting supernatant from centrifuge (4 °C, 15,000× g) were resuspended in 100 μL formic acid: water (0.2%, v/v). One hundred microliters of the filtered sample were analyzed by HPLC system described in Supplementary HPLC method D. Three injections were performed for each sample.

[2] = tested on: R1-D567 cell line; assay: Anti-proliferative SRB assay, R1-D567; type: cell-based; settings: Homo sapiens; R1-D567, PSMA −; Table S3, ± SD
Experimental: (§1) Half-maximal growth inhibitory concentrations (GI50) were determined using sulforhodamine B (SRB) assay as described elsewhere. In brief, cells were seeded in 96-wells at respective cell densities determined by their cell growth curves. After 24 h, the cells were treated in six replicates with medium or different concentrations of CHKA inhibitors in medium and incubated for another 72 h. On completion of incubation, the cells were fixed with 10% trichloroacetic acid (TCA) and stained with 0.4% SRB in 1% acetic acid. The stained protein was solubilized with 10 mM Tris base and optical density values were measured at 540 nm using a Multiskan® EX Micro plate photometer (Thermo Scientific, Loughborough, UK). Growth inhibition curves were plotted as percentage of the control groups and GI50 data were determined by least squares fitting method using GraphPad Prism 7.0. All the chemicals used in this experiment were obtained from Sigma-Aldrich (Gillingham, UK).

[3] = tested on: LNCap cell line; assay: Anti-proliferative SRB assay, LNCap; type: cell-based; settings: Homo sapiens, PSMA +, Table S3, ± SD
Experimental: as §1

[4] = target: SPHK1 (Homo sapiens, UniProt Q9NYA1); assay: Lipid kinase screening (ADP-Glo), SPHK1; type: biochemical
SPHK1, sequence (Q9NYA1 whole entry): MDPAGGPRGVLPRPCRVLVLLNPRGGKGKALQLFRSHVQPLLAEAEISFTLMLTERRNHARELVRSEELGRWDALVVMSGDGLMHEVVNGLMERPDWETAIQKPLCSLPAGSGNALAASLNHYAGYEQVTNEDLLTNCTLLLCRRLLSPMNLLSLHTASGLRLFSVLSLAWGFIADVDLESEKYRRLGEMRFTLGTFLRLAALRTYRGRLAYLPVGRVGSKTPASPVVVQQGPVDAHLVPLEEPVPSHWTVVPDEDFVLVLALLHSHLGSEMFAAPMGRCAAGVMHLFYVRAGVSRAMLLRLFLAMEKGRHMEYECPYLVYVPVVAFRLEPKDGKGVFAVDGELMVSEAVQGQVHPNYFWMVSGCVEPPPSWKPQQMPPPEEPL
Experimental: (§2) The lipid kinase screening for ICL-CCIC-0019, CK14, CK145 (5), CK146 (4) and CK147 (8) (testing concentration for all compounds: 10 μM) was performed by MRC PPU International Centre for Kinase Profiling (Dundee, UK). The lipid kinase screening panel includes 15 human recombinant lipid kinases and the tests used Promega ADP Glo^TM High Throughput Assay kit (Promega, Southampton, UK). For each assay, reference compounds were used as quality control. Finally, mean percentage activity inhibited by compounds and standard deviation for all the repeats were calculated.

[5] = Caco-2 permeability and efflux study; type: in vitro ADME, human; settings: human; for efflux ratio: Caco-2, read-out: Efflux ratio (Papp B-A/Papp A-B); for Papp A→B: Caco-2, apical to basolateral, read-out: Papp A-B; for Papp B→A: Caco-2, basolateral to apical, read-out: Papp B-A
Experimental: (§3) The ADME study for ICL-CCIC-0019, CK14, CK145 (5), CK146 (4) and CK147 (8) was performed by Charles River Drug Discovery Services (Essex, UK).
(§4) The predicted in vitro pharmacokinetic characteristics of compounds were evaluated by four ADME assays, namely kinetic solubility assay, metabolic stability assay using human liver microsome S9, permeability and efflux study using the Caco-2 cell line, and matrix stability assay using fasted state simulated gastric fluid (FaSSGF). All tested CHKA inhibitors were highly soluble (>150 μM) in 0.1 M PBS (2% DMSO) (Table 1). […] The in vivo clearance was calculated to predict the actual clearance in humans by scaling the clearance values, which takes into account liver weight, microsomes per liver and liver blood flow. […] In Caco-2 cell permeability assay, drug permeability was investigated and presented as apparent permeability coefficients (Papp) in A to B (A-B, apical to basolateral direction) and B to A (B-A, basolateral to apical direction).

[6] = tested on: [18F]D4-FCH uptake in C4-2B cells; assay: [18F]D4-FCH uptake in vitro study, C4-2B; type: cell-based; settings: Homo sapiens, 1 μM, read-out: inhibition of [18F]D4-FCH uptake (mean of CK14, CK145 and CK146)
Experimental: HCT-116 and C4-2B cells were seeded at a density of 5 × 10^5 cells per well into 6-well plates and incubated overnight. Cells were treated with 1 or 10 µM CHKA inhibitors (CK14, CK145, CK146 and CK147) for 1 h and pulsed with [^18F]D4-FCH (740 kBq) in presence of inhibitors in 1 mL for an additional hour at 37 °C. Cells were washed with ice-cold PBS three times and lysed in 1 mL RIPA buffer. The radioactivity of 800 µL lysate from each well was counted on a gamma counter (Perkin Elmer, Beaconsfield, UK) and normalized to protein content as determined by BCA assay.

[7] = target: DGK z (Homo sapiens, UniProt Q13574); assay: Lipid kinase screening (ADP-Glo), DGK z; type: biochemical
Experimental: as §2

[8] = tested on: PC3 cell line; assay: Anti-proliferative SRB assay, PC3; type: cell-based; settings: Homo sapiens, PC-3; PC3, PSMA −; Table S3, ± SD
Experimental: as §1

[9] = target: PI3K g (Homo sapiens, UniProt P48736); assay: Lipid kinase screening (ADP-Glo), PI3K g; type: biochemical
PI3K g, sequence (P48736 whole entry): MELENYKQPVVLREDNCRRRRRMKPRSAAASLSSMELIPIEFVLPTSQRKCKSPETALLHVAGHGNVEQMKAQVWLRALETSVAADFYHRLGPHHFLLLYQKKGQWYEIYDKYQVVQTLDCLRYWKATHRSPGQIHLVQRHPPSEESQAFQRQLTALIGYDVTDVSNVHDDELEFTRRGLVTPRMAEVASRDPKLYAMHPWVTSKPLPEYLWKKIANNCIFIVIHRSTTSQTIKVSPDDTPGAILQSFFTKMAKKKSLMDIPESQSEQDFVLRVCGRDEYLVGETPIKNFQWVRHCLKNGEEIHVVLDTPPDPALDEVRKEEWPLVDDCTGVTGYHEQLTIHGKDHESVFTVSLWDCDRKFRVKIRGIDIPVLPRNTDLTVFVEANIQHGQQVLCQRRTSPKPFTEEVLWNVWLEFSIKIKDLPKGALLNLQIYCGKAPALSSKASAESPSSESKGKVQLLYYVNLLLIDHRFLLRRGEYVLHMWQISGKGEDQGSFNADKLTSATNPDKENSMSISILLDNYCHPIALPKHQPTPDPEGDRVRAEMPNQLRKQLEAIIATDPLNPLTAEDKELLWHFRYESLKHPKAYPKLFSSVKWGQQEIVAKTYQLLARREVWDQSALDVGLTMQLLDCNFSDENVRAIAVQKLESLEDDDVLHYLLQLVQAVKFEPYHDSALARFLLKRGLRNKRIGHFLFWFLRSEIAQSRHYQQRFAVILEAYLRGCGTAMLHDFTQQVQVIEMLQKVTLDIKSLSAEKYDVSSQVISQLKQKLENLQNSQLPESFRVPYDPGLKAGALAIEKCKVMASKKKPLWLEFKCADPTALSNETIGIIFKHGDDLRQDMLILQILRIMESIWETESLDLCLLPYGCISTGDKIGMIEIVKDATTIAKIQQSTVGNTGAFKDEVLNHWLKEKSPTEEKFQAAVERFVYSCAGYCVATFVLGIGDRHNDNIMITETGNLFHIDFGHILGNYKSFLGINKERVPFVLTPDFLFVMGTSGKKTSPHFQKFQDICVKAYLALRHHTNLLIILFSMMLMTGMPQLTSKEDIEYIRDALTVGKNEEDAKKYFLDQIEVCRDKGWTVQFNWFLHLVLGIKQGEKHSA
Experimental: as §2

[10] = target: PI3Ka E545K + p85 (Homo sapiens, UniProt P42336, E545K); assay: Lipid kinase screening (ADP-Glo), PI3Ka E545K + p85; type: biochemical
PI3Ka E545K + p85, sequence (P42336 whole entry E545K): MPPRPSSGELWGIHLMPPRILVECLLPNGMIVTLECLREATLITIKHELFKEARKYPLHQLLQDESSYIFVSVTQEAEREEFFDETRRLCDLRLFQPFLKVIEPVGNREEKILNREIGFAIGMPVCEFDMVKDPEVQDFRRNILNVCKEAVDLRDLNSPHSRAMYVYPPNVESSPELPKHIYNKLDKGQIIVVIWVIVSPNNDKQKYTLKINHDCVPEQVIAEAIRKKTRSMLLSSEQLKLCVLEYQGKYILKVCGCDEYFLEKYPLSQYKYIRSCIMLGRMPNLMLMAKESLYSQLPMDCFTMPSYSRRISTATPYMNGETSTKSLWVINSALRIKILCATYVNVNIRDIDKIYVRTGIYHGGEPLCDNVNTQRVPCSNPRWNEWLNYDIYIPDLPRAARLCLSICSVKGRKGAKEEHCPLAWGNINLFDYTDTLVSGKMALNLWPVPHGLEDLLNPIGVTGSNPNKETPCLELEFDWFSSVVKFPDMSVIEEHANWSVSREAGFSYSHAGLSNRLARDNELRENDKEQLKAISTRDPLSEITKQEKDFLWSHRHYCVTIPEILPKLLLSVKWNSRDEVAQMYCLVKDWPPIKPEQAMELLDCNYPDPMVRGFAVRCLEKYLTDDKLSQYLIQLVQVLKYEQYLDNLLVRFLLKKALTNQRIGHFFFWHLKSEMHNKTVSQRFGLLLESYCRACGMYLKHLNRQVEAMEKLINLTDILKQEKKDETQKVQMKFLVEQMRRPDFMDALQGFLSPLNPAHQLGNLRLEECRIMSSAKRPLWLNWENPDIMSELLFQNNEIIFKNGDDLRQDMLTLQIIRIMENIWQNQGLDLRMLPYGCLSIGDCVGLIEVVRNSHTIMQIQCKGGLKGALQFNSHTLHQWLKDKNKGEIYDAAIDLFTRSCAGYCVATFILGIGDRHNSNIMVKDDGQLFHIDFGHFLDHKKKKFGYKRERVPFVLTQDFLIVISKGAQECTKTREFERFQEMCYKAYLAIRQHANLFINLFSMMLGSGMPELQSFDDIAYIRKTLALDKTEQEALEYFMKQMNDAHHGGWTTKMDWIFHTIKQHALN
PI3Ka E545K + p85, sequence (P27986 whole entry partner): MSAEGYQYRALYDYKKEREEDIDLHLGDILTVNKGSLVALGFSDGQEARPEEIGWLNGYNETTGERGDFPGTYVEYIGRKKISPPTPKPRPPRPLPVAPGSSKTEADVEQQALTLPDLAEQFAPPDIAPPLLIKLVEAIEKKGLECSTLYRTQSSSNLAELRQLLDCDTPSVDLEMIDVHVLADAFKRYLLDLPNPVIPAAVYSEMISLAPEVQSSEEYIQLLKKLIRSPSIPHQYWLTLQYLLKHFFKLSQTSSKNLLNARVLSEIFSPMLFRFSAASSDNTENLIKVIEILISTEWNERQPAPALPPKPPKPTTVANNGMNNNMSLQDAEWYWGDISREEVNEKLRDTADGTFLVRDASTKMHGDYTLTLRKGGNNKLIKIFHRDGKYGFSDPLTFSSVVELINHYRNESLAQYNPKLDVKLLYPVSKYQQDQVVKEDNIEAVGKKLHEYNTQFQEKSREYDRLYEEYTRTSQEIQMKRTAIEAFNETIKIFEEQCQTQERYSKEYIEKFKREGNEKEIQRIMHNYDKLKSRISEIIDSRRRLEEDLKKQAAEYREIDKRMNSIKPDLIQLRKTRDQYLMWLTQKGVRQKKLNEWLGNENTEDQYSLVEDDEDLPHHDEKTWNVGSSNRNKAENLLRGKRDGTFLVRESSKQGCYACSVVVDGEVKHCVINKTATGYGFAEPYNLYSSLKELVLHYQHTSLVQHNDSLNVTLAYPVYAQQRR
Experimental: as §2

[11] = target: PI3K b (Homo sapiens, UniProt P42338); assay: Lipid kinase screening (ADP-Glo), PI3K b; type: biochemical
Experimental: as §2

[12] = Human microsomal metabolic stability assay; type: in vitro ADME; settings: for PCT_LBF % (percentage of compound removed compared to liver blood flow) / microsomal CLint / half-life / Predicted in vivo clearance: human; for microsomal CLint / half-life: human liver microsome S9, human liver microsome S9; for microsomal CLint: read-out: Human Microsomal Metabolic Stability: Clint; for half-life: read-out: Human Microsomal Metabolic Stability: Half-life; for Predicted in vivo clearance: scaled from microsomal clearance (liver weight, microsomes per liver, liver blood flow)
Experimental: as §3, §4

[13] = target: DGK g (Homo sapiens, UniProt P49619); assay: Lipid kinase screening (ADP-Glo), DGK g; type: biochemical
DGK g, sequence (P49619 whole entry): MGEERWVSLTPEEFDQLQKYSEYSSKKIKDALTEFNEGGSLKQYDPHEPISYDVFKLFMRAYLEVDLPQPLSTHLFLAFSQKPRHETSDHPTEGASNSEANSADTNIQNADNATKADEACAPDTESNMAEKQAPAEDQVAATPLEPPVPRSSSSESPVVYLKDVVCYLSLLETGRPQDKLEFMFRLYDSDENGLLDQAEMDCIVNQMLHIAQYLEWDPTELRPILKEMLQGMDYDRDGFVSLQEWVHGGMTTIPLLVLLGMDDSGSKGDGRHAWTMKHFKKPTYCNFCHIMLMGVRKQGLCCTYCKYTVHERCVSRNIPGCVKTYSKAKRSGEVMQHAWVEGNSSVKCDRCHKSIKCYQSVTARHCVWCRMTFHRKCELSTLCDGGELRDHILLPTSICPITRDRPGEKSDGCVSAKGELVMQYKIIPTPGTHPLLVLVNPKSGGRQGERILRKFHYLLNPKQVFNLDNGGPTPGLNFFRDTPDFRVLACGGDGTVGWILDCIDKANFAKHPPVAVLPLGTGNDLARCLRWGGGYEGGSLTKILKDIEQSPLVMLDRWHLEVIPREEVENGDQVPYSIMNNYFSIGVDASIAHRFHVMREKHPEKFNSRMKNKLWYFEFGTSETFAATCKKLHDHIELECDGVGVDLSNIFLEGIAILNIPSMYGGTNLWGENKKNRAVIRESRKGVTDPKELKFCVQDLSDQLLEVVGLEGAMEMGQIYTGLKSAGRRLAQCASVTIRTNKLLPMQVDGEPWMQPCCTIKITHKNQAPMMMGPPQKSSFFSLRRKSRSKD
Experimental: as §2

[14] = Matrix stability assay in fasted state simulated gastric fluid (FaSSGF); type: in vitro ADME; settings: for Matrix Stability: Remaining %: FaSSGF; for half-life: fasted state simulated gastric fluid (FaSSGF), fasted state simulated gastric fluid, pH 1.6, read-out: FaSSGF stability Half-life (converted)
Experimental: as §3, §4

[15] = target: CHK b (CHKB) (Homo sapiens, UniProt Q9Y259); assay: Lipid kinase screening (ADP-Glo), CHKB; type: biochemical
CHK b (CHKB), sequence (Q9Y259 whole entry): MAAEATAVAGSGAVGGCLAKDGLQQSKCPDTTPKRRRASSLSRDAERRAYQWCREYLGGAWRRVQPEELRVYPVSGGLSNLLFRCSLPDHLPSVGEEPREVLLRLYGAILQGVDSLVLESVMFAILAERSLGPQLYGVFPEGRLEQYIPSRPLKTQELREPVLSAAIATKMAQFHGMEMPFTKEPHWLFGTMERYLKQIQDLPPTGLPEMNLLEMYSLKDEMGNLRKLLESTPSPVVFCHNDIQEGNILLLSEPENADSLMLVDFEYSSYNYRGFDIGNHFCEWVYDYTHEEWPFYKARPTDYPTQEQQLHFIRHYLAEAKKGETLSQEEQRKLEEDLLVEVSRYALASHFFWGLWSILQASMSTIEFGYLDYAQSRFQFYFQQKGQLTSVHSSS
Experimental: as §2

[16] = target: PI4K2a (Homo sapiens, UniProt Q9BTU6); assay: Lipid kinase screening (ADP-Glo), PI4K2a; type: biochemical
PI4K2a, sequence (Q9BTU6 whole entry): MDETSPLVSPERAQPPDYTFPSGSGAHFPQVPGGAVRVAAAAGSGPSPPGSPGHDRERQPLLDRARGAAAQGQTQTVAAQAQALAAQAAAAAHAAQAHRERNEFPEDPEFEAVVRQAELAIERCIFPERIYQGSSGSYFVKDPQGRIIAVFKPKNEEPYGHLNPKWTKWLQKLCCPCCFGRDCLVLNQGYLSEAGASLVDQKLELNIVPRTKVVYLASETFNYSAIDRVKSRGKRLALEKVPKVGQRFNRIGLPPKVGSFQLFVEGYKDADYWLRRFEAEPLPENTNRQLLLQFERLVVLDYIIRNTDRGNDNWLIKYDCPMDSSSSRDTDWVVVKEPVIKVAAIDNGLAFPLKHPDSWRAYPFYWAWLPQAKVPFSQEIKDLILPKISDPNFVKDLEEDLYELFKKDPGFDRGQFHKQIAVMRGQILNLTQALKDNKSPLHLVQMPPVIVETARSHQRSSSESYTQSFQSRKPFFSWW
Experimental: as §2

[17] = tested on: A549 cells; assay: Anti-proliferative SRB assay, A549; type: cell-based; settings: Homo sapiens, 72 h, Table S2, ± SD
Experimental: as §1

[18] = target: PI3K a (Homo sapiens, UniProt P42336); assay: Lipid kinase screening (ADP-Glo), PI3K a; type: biochemical
PI3K a, sequence (P42336 whole entry): as the sequence (P42336 whole entry E545K) above, with K545E counted along it
PI3K a, sequence (P27986 whole entry partner): as the sequence (P27986 whole entry partner) above
Experimental: as §2

[19] = tested on: HCT-116 colorectal cancer cells; assay: Cellular uptake and metabolism study in HCT-116 (HPLC); type: cell-based, human; settings: HCT-116, 50 μM
Experimental: The cell pellets were resuspended in 1 mL water: acetonitrile: formic acid (95:5:0.2, v/v/v) and disrupted by an ultrasonic cell disruptor (Soniprep 150, MSE Ltd., London, UK) for 1 min on ice. One hundred microliters of the filtered supernatant from centrifuge (4 °C, 15,000× g) were analyzed by HPLC. Three injections were performed for each sample. […] The HPLC method used in this study is described in Supplementary HPLC method C.

| SMILES | GI50 [2] | GI50 [3] | inhibition at 10 µM [4] | efflux ratio [5] | Papp A→B [5] | Papp B→A [5] | inhibition at 10 µM [7] | GI50 [8] | inhibition at 10 µM [9] | inhibition at 10 µM [10] | inhibition at 10 µM [11] | Human Microsomal Metabolic Stability: Remaining % ([12]; human liver microsome S9) | Predicted in vivo clearance [12] | inhibition at 10 µM [13] | Matrix Stability: Remaining % [14] | half-life [14] | inhibition at 10 µM [15] | inhibition at 10 µM [16] | GI50 [17] | inhibition at 10 µM [18] | further results |
| --- | --- | --- | --- | --- | --- | --- | --- | --- | --- | --- | --- | --- | --- | --- | --- | --- | --- | --- | --- | --- | --- |
| CN(C)c1cc[n+](CCCCCCCCCCCCCC[n+]2ccc(N3CCNCC3)cc2)cc1 [CK146] | 870 ± 30 nM | 1920 ± 990 nM | 2.1% | > 2.6 | < 0.1 ×10⁻⁶ cm/s | 0.3 ×10⁻⁶ cm/s | 8.6% | 4730 ± 810 nM | 6.7% | -1% | -45.9% | 127% | <10 mL/min/kg | 10.7% | 92% | > 10 h | -49% | -13.4% | 2070 ± 200 nM | -5.4% | mean cellular uptake ([1]; FCS negative group): 34.1 ± 0.6 % μg^−1 protein; mean cellular uptake ([1]; FCS positive group (10% FCS)): 24.9 ± 1.4 % μg^−1 protein; detection in cell lysates by HPLC (in words) [1]: detected; inhibition at 1 µM [6]: 46 ± 1%; PCT_LBF % (percentage of compound removed compared to liver blood flow) [12]: <45%; microsomal CLint [12]: < 14 µL/min/mg; half-life [12]: > 1.67 h |
| CN(C)c1cc[n+](CCCCCCCCCCCC[n+]2ccc(N(C)C)cc2)cc1 [ICL-CCIC-0019] | 320 nM | 300 ± 60 nM | -3.7% | > 8.6 | < 0.1 ×10⁻⁶ cm/s | 0.9 ×10⁻⁶ cm/s | 7.5% | 790 ± 30 nM | 4.9% | -6.1% | -39.6% | 92% | <10 mL/min/kg | 7.8% | 117% | > 10 h | -28.6% | -13.9% | 50 ± 5 nM | 1% | mean cellular uptake ([1]; FCS negative group): 34.1 ± 0.6 % μg^−1 protein; mean cellular uptake ([1]; FCS positive group (10% FCS)): 24.9 ± 1.4 % μg^−1 protein; detection in cell lysates by HPLC (in words) [1]: detected; cellular uptake relative to CK145 ([19]; 1 h and 2 h post-incubation): approximately two-fold; PCT_LBF % (percentage of compound removed compared to liver blood flow) [12]: <45%; microsomal CLint [12]: < 14 µL/min/mg; half-life [12]: > 1.67 h |
| CC(=O)NCCCCC(NC(=O)OC(C)(C)C)C(=O)N1CCN(c2cc[n+](CCCCCCCCCCCCCC[n+]3ccc(N(C)C)cc3)cc2)CC1 (stereo not drawn) [CK145] | 40400 ± 4560 nM | 39000 ± 8560 nM | 0.6% | > 2.8 | < 0.1 ×10⁻⁶ cm/s | 0.3 ×10⁻⁶ cm/s | 11.6% | 84900 ± 7030 nM | 2.9% | -1.8% | -15.8% | 2% | 19 mL/min/kg | 13.2% | 74% | 9.2 h | -18.1% | -11.4% | 2470 ± 60 nM | -1% | in vitro conversion to CK146 or intermediates (in words) ([19]; 1 h and 2 h, HPLC): not observed; inhibition at 1 µM [6]: 46 ± 1%; metabolic stability (in words) ([12]; human liver microsome S9): Rapid decomposition; FaSSGF stability (in words) ([14]; low pH (1.6)): Rapid decomposition |
